“Also recorded” adds a separate entry of the source.
Experiments:
[1] = tested on: male ICR mice; assay: Elevated plus maze (EPM) test, intraperitoneal injection; type: in vivo, mouse; conditions: for Open-arm residence times and entries compared with BAF: Tables 3 and 4, statistical differences at a low dose; for Efficacy compared with BAF: at low doses; for Closed arm number of entries / Closed arm residence time / Open arm number of entries / Open arm residence time / Open arm/closed arm frequency ratio / Open arm/closed arm time ratio: mice, intraperitoneal, 5 min before entering the maze
Description: The active ingredient used in the following pharmacological experiment, the compound shown in Formula (I) of the present application, is the final product in Example 1 of the present application, namely (1R,6S,9R)6,10,10-trimethyl-2-(4,4,4-trifluorobutyl)-11-oxatricyclo [7.2.1.0^1,6]dodec-2-ene (hereinafter referred to as Compound 2). Compound 2 and an excipient PVP (povidone K30) were mixed in an ethanol solution in a mass ratio of 1:15, spin-dried, and prepared into a preparation form of Compound 2 (the following Compound 2 refers to the preparation form of Compound 2). The preparation form of which the active ingredient was 4-butyl-α-agarofuran (BAF for short) was used as a positive drug, a preparation method for this preparation was the same as that of the preparation of Compound 2, and the following BAF refers to this preparation of BAF. PVP was a blank control. In addition, the administration dose was calculated according to a crude drug.
This model is one of the most commonly used animal models in the research of antianxiety drugs. The elevated plus maze is composed of an open arm (30×5×0.5 cm) and an closed arm (30×8×15 cm) that are crossed in a positive cross shape, and the instrument is suspended 50 cm above the ground. Due to the narrowness, suspension, and brightness of the open arm, there may be internal “fear” or conflict in the open arm, and on the contrary, it more complies with the nature of rodents in the closed arm. 5 min after administration, a mouse is placed in the center of the maze, and its head faces to the open arm. Open-arm and closed-arm entries and residence times in both arms during the experimental period (usually 5 min) are recorded respectively. The percentages of the open arm entries and the open arm residence times respectively accounting for the total entries (sum of the open arm and closed arm entries) and the total time (sum of the open arm and closed arm residence times) are calculated, as an indicator for evaluating the anxiety. Generally speaking, a drug is considered to have antianxiety effects in the case that the open arm cumulative residence time is prolonged without reducing the open arm and closed arm entries.
The experiment used male Institute of Cancer Research (ICR) mice (purchased from Beijing Weitong Lihua Experimental Animal Technology Co., Ltd.), the weight was 18-20 g, the mice were randomly divided into 7 groups according to the weight, and there were 13 mice in each group. Grip adaptation training was conducted on the mice before the experiment. Before the experiment, the mice were fasted for 12 hours. It was administered by an intraperitoneal injection mode. 4-butyl-α-agarofuran (BAF for short) was used as a positive drug, and PVP was a blank control. The specific grouping and disposal modes are as follows:
During detection, after intraperitoneal injection of BAF/Compound 2, each mouse was immediately placed in an open animal box and allowed to move freely for 5 min, then the mouse was placed on a central platform of the elevated plus maze, its head faced to a fixed open arm. The detection was started, timed for 5 min, and recorded with a supermaze software by using a camera head. After all the experiments were completed, the residence times (s) of the mice in the open arm and the closed arm, the open arm and closed arm entries, and the time ratios and frequency ratios of the open arm and closed arm entries were recorded with the supermaze software. 1 was added to the number of entry arms with a latency of 0.

[2] = Plasma pharmacokinetics after intraperitoneal injection in mouse (UPLC-MS/MS); type: in vivo; conditions: for AUC(0-t) / half-life / Cmax: male, ICR; for AUC(0-t) / half-life: plasma; for AUC(0-t): 10 mg/kg, according to the above method, read-out: AUC(0-t); for AUC(0-t) / half-life / Pharmacokinetic properties compared with BAF: mouse; for AUC(0-t) / Pharmacokinetic properties compared with BAF: IP; for half-life / Cmax: IP 10 mg/kg; for Cmax: mouse plasma, prototype drug
Protocol: Positive control drug 4-butyl-α-agarofuran preparation (BAF) and Compound 2 preparation were administered intraperitoneally at a dose of 10 mg/kg/10 ml (calculated according to the crude drug), and a suspension was prepared by ultrasonic grinding with double distilled water. Male ICR mice, with a weight of 21-24 g, were purchased from SPF (Beijing) Biotechnology Co., Ltd.
12 mice were randomly divided into 4 groups, there were 3 parallel cross blood sampling points in each group (5 points in groups 1 and 3, and 6 points in groups 2 and 4), it was administered according to the weight, and blood was collected from the orbital venous plexus at 5 min, 10 min, […], 30 min, 1 h, 2 h, 4 h, 6 h, 8 h, 12 h, and 24 h after administration. The bloods at each time point were collected into Eppendorf (EP) tubes anticoagulated with heparin, and placed on ice and centrifuged at 8000 r/min×5 min, to separate plasma for later use.
20 μl of mouse blank plasma was taken, 55 μl of acetonitrile containing an internal standard solution (200 ng/mL, BAF crude drug and Compound 2 crude drug are mutual internal standards, namely BAF was used as the internal standard of Compound 2, and Compound 2 was used as the internal standard of BAF, similarly hereinafter) is added, 5 μl of a methanol working solution of the compound BAF or Compound 2 with different concentrations was respectively added and mixed uniformly, so that its final plasma concentrations were 0.2, 0.5, 2, 5, 10, 25, 50, 100, 200, 500, 750, and 1000 ng/ml respectively, centrifugation was conducted twice at a high speed of 13000 r/min×5 min, and 5 μl of a supernatant was taken for UPLC-MS/MS analysis.
10 μL of plasma was taken, 30 μL of acetonitrile containing internal standard solution (100 ng/mL) was added to precipitate proteins, after the material was centrifuged twice at a high speed of 13000 r/min×5 min, 5 μl of a supernatant was taken for UPLC-MS/MS analysis.
Chromatographic column: Symmetry C8 (2.1 mm×50 mm, 3.5 μm), column temperature: 25° C., mobile phase: acetonitrile (0.1% formic acid): water (0.1% formic acid)=70:30 gradient elution, flow rate: 0.2 mL/min, Parallel Reaction Monitoring (PRM) detection, BAF: m/z 263.2→245.2; and Compound 2: m/z 317.2→299.2.

SMILES	Open-arm residence times and entries compared with BAF [1]	Efficacy compared with BAF [1]	Closed arm number of entries ([1]; 2.4 mg/kg)	Closed arm residence time ([1]; 2.4 mg/kg) [s]	Open arm number of entries ([1]; 2.4 mg/kg)	Open arm residence time ([1]; 2.4 mg/kg) [s]	Open arm/closed arm frequency ratio ([1]; 2.4 mg/kg)	Open arm/closed arm time ratio ([1]; 2.4 mg/kg)	Closed arm number of entries ([1]; 4.8 mg/kg)	Closed arm residence time ([1]; 4.8 mg/kg) [s]	Open arm number of entries ([1]; 4.8 mg/kg)	Open arm residence time ([1]; 4.8 mg/kg) [s]	Open arm/closed arm frequency ratio ([1]; 4.8 mg/kg)	Open arm/closed arm time ratio ([1]; 4.8 mg/kg)	Closed arm number of entries ([1]; 9.6 mg/kg)	Closed arm residence time ([1]; 9.6 mg/kg) [s]	Open arm number of entries ([1]; 9.6 mg/kg)	Open arm residence time ([1]; 9.6 mg/kg) [s]	Open arm/closed arm frequency ratio ([1]; 9.6 mg/kg)	Open arm/closed arm time ratio ([1]; 9.6 mg/kg)	also measured
CC1(C)O[C@]23C[C@H]1CC[C@]2(C)CCC=C3CCCCC(F)(F)F [Compound 6, (1R,6S,9R)6,10,10-trimethyl-2-(5,5,5-trifluoropentyl)-11-oxatricyclo [7.2.1.0^1,6]dodec-2-ene]	prolonged	better efficacy	11.00 ± 0.83	129.22 ± 9.33	9.11 ± 0.54	126.19 ± 8.01	0.86 ± 0.07	0.98 ± 0.15	10.00 ± 0.60	154.33 ± 7.85	8.88 ± 0.55	116.53 ± 6.42	0.90 ± 0.05	0.78 ± 0.07	8.56 ± 1.19	140.04 ± 15.48	8.78 ± 1.53	111.29 ± 11.05	1.06 ± 0.13	0.91 ± 0.17	AUC(0-t) [2]: 142 ng·h/mL; half-life [2]: 1.39 h; Cmax [2]: 342 ng/mL; Pharmacokinetic properties compared with BAF [2]: superior to BAF; also recorded: better pharmacokinetic properties
[2H]C1[C@H]2CC[C@]3(C)CC([2H])([2H])C=C(CCCC(F)(F)F)[C@@]13OC2(C)C (stereo partly drawn) [Compound 8, (1R,6R,9R)6,10,10-trimethyl-2-(4,4,4-trifluorobutyl)-4,4,10-trideuterium-11-oxatricyclo [7.2.1.0^1,6]dodec-2-ene]	prolonged	better efficacy	10.86 ± 1.30	126.36 ± 11.90	9.43 ± 0.78	134.90 ± 9.73	0.93 ± 0.10	1.20 ± 0.26	10.00 ± 0.63	147.85 ± 10.01	9.10 ± 0.87	117.97 ± 8.25	0.93 ± 0.10	0.88 ± 0.14	10.00 ± 1.20	139.21 ± 14.30	8.70 ± 0.94	112.96 ± 9.69	0.90 ± 0.07	0.93 ± 0.16	AUC(0-t) [2]: 148 ng·h/mL; half-life [2]: 1.41 h; Cmax [2]: 350 ng/mL; Pharmacokinetic properties compared with BAF [2]: superior to BAF; also recorded: better pharmacokinetic properties

Reference: patent US20230391741A1, “AGAROFURAN COMPOUND, PREPARATION METHOD THEREFOR, AND APPLICATION THEREOF” (BEIJING CHY PHARMACEUTICAL TECHNOLOGY CO, LTD., priority 2021, published 2023)
